Measured values from ChEMBL document CHEMBL1201862, “PubChem BioAssay data set” (2004).
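Briefly, cells in 96-well plates were exposed to five compound concentrations for 48 h, and endpoints were estimated by linear interpolation. GI50 = concentration required for 50% inhibition of growth.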 The source made the active and inactive calls. Cut-off read from the data, not from the text of the source: active = GI50 up to about 1.1 µM and inactive = higher.

Legend:
Assay in all cases: NCI-60 cell line screen, 48 h
BT-549 = tested on: BT-549
CCRF-CEM = tested on: CCRF-CEM
COLO 205 = tested on: COLO 205
DU-145 = tested on: DU-145
EKVX = tested on: EKVX
HCT-15 = tested on: HCT-15
Hs-578T = tested on: Hs-578T
LOX IMVI = tested on: LOX IMVI
MDA-MB-231 = tested on: MDA-MB-231
MDA-MB-435 = tested on: MDA-MB-435
MOLT-4 = tested on: MOLT-4
NCI-H23 = tested on: NCI-H23
OVCAR-3 = tested on: OVCAR-3
OVCAR-4 = tested on: OVCAR-4
PC-3 = tested on: PC-3
RXF 393 = tested on: RXF 393
SF-295 = tested on: SF-295
SK-MEL-28 = tested on: SK-MEL-28
T47D = tested on: T47D
UACC-62 = tested on: UACC-62

Row | SMILES | GI50 (BT-549) | GI50 (CCRF-CEM) | GI50 (COLO 205) | GI50 (DU-145) | GI50 (EKVX) | GI50 (HCT-15) [µM] | GI50 (Hs-578T) | GI50 (LOX IMVI) | GI50 (MDA-MB-231) | GI50 (MDA-MB-435) | GI50 (MOLT-4) | GI50 (NCI-H23) | GI50 (OVCAR-3) | GI50 (OVCAR-4) | GI50 (PC-3) | GI50 (RXF 393) | GI50 (SF-295) | GI50 (SK-MEL-28) | GI50 (T47D) | GI50 (UACC-62)
1 | Cc1cn(C2CC(O)C(Cn3nncc3Cn3ncc(=O)[nH]c3=O)O2)c(=O)[nH]c1=O (stereo not given) | > 100 µM (inactive) | > 100 µM (inactive) | > 100 µM (inactive) | > 100 µM (inactive) | > 100 µM (inactive) | > 100 | > 100 µM (inactive) | > 100 µM (inactive) | > 100 µM (inactive) | > 100 µM (inactive) | > 100 µM (inactive) | > 100 µM (inactive) | > 100 µM (inactive) | > 100 µM (inactive) | > 100 µM (inactive) | > 100 µM (inactive) | > 100 µM (inactive) | > 100 µM (inactive) | > 100 µM (inactive) | > 100 µM (inactive)
2 | CN(C)CCN1C(=O)c2cccc3cc(N)cc(c23)C1=O [AMONAFIDE] | 4.01 µM (inactive) | 1.91 µM (inactive) | 1.55 µM (inactive) | 2.94 µM (inactive) | 5.94 µM (inactive) | 2.6 | 6.21 µM (inactive) | 2.46 µM (inactive) | 2.46 µM (inactive) | 3.37 µM (inactive) | 0.804 µM (active) | 3.91 µM (inactive) | 5.81 µM (inactive) | 4.71 µM (inactive) | 2.01 µM (inactive) | 4.06 µM (inactive) | 3.46 µM (inactive) | 6.84 µM (inactive) | 4.5 µM (inactive) | 3.38 µM (inactive)
